Data published in patent US20260085315A1, “POLYNUCLEOTIDE COMPOSITIONS AND METHODS FOR TREATMENT OF CANCER” (APTAH BIO, INC., priority 2023, published 2026).
“Also recorded” adds a separate entry of the source. d = 2'-deoxy (DNA); m = 2'-O-methyl

Assays:
[1] = tested on: MCF-7 cell line; test: Annexin V/propidium iodide apoptosis assay; format: cell-based, Human; settings: 0.25, 0.5, 1 μM; 24 hours; vs non-treated cells
Experimental: The apoptosis-inducing potential of ASMO APT20TTMG was evaluated using the method of double labeling of cells with Annexin V and propidium iodide. Annexin V is a peptide that has a high affinity for phosphatidyl serine, a phospholipid distributed asymmetrically in the inner leaflet of the lipid bilayer of membrane plasma under physiological conditions. During the process of cell death by apoptosis, phospholipids asymmetric distribution is lost and phosphatidyl serine is translocated to the outer leaflet of the plasma membrane through a process of externalization. The measurement of the exposure of phosphatidylserine could be detected by Annexin V conjugated to fluorochromes. On the other hand, propidium iodide is a DNA intercalator that only can penetrate the interior of the cell in cases where the selective permeability of the plasma membrane is compromised, which clearly occurs during several processes of cell death.
Pro-apoptotic potential of APT20TTMG was evaluated in the MCF-7 cell line, using the Apoptosis Detection with Annexin V/Propidium Iodide kit (eBioScience). First, cells were cultured in 24-well plates at a density of 1×10^5 cells/well for 24 hours for adhesion. […] Finally, the samples were labeled with Propidium Iodide and analyzed in a flow cytometer (BD FACSCanto II, BD Biosciences) through the acquisition of 10.000 gated events/sample.

[2] = tested on: Human Glioblastoma Cancer (U-87MG) xenograft; test: Human glioblastoma xenograft tumor growth; format: in vivo, athymic nude mice; settings: for tumor reduction in relation to the negative control: APT20TTMG 20 mg/kg i.v. q3d, TMZ 5 mg/kg p.o. daily
Experimental: Subcutaneous inoculation of the tumorigenic Human Glioblastoma Cancer Cell line (U-87MG) results in the formation of solid tumor in athymic nude mice. Under pathogen free conditions, the tumor retains its own characteristics and grows using the growth factors supplied by the host animal. The ability of administered ASMO1 to inhibit the growth of tumor can be a valuable tool to evaluate its efficacy as an anti-tumor agent. Measurement of tumor size at defined intervals of time generates data that can be used to calculate various end point parameters derived from tumor and understand the potency of the test compounds.
Human glioblastoma cancer cells (U-87MG) were cultured and expanded in EMEM (Eagle's Minimum Essential Medium) supplemented with 10% Fetal Bovine Serum (FBS) at 37° C. and 5% CO2. The cells growing at log phase were harvested by trypsinization and centrifuged for 3 minutes at 800 rpm to form a pellet. The pellet was further washed with PBS. Cell suspension stock was prepared to obtain the required cell count. Before cell inoculation, cell viability was determined using trypan blue. 25 μL of cell suspension was stained with 25 μL of trypan blue and viable cells were counted using Neubauer's chamber. Cell number was adjusted by adding serum free media to achieve desired concentration, i.e., 10×10^7/mL.
Cells were diluted such that the concentration of the cells was 10 million cells/100 μL of serum free medium. Overnight thawed Matrigel and cells with medium were mixed 1:1 and a total volume of 200 μL was injected subcutaneously to the donor animals (n=5) at flank region.
Donor animals were monitored for solid tumor growth for at least 3-4 weeks. Tumor size was measured using digital caliper (MITUTOYO, Japan, CP-15Mx) and volume was calculated by using the formula: (L*W2)/2. Once the tumor reached required size ˜500 mm^3, the donor animals were humanely sacrificed, the tumor was harvested and fragmented into ˜30 mg size and implanted subcutaneously to experimental animals (n=50) using the device. All the animals was monitored alternate day for tumor growth/size.
Once the tumor size reached ˜100 mm^3, animals were selected and randomized by stratification method using tumor size into three groups (G1-G3). Treatment for G1-G3 was initiated at this stage. Each group was comprised of 8 animals.
• G1 was served as vehicle control group and treated with normal saline at the dose of 5 mL/kg, daily, intravenously for 3 weeks. • G2 was served as Reference Item treated group and treated with TMZ at the dose of 5 mg/kg, p.o., daily for 3 weeks. • G3 was treated with APT20TTMG at the dose of 20 mg/kg, intravenously, every third day (q3d) for 3 weeks.
Body weight and tumor size were measured weekly twice using digital caliper. At termination, blood was collected through retro-orbital route. Serum/plasma was separated and stored at deep freezer (−20° C.). Post blood collection, animals were humanely sacrificed by CO2 asphyxiation as per latest guidelines issued by CPCSEA. All the vital organ (brain, kidney, liver, lungs, heart) and tumor were dissected out. Vital organs were fixed in 10% NBF and stored. Tumor tissue was dissected out, weighed and portion of tumor tissue was fixed in 10% NBF and another portion is snap frozen and stored at deep freezer (−80° C.).
As shown in FIG. 34A-C, tumor fragments from the U-87MG cell line were implanted in the animals and once the tumor size reached ˜100 mm^3 animals were randomized into 3 experimental groups (G1, G2, and G3). G1: Vehicle, (G2) Reference Item Temozolomide, and (G3) APT20TTMG for a total of 22 days. (A) The tumor volume of the animals was measured twice/a week. (B) Animals were weighed throughout the experiment and the change in weight gain compared to pre-treatment weight was plotted. (C) After the euthanasia of the animals, the tumors were removed and weighed.

[3] = tested on: cAMP; test: ELISA of tumor tissue homogenate; format: in vivo, U-87MG xenograft in animals; settings: vs negative control; lower total expression
Experimental: For the assessment of biomarkers such as cAMP, AKT, GFAP, and TAU by ELISA, the U-87MG tumor tissues dissected out from the animals were homogenized according to kit instructions. The homogenates were centrifugated, and the supernatant was collected and immunoassayed with the Human AKT Protein ELISA Kit (MyByoSouce), cyclic AMP Complete Enzyme-linked Immunosorbent Assay (ELISA) kit (MyByoSouce), Human Glial Fibrillary Acidic Protein (GFAP) ELISA Kit (Cusabio), and Human TAU Protein (TAU) ELISA Kit (MyByoSouce) for the quantitative determination of cAMP, AKT, GFAP, and TAU proteins, respectively.
As shown in FIG. 37A-D, the graphs present the individual values of protein quantification of tumors from 6 animals. (A) cAMP, (B) […], (C) GFAP, and (D) TAU.

APT20TTMG: engineered polynucleotide ASMO1, 24 nt, SEQ ID NO: 3 gtccactaacctttcaggccagcg; targeting moieties 5′-GTCCA-3′ and 5′-CG-3′, U1 snRNP recruiting moiety (GTCCACTAACCTTTCAGGCCAGCG; sugars from the 5' end m5 d14 m5, all phosphorothioate, methylation of C and T or U not given here)
proportion of viable cells, recent/late apoptosis or necrosis [1]: no change in any of the evaluated parameters | tumor growth (tumor volume) vs vehicle group ([2]; APT20TTMG 20 mg/kg i.v. every third day 3 weeks, TMZ 5 mg/kg p.o. daily 3 weeks): inhibit tumor growth from day 16 | final tumor weight ([2]; between APT20TTMG, TMZ and vehicle groups, after euthanasia): no statistical difference | tumor reduction in relation to the negative control ([2]; day 20): 46.7±10.7% | tumor reduction in relation to the negative control ([2]; day 22): 42±13.2% | Volume (tumor) ([2]; individual animals, G3 APT20TTMG, G2 TMZ): Volume 321.5; also recorded: Volume 768.1; also recorded: Volume 796.8; also recorded: Volume 62.3; also recorded: Volume 1441.5; also recorded: Volume 953.5 | cAMP in tumor tissue (ELISA) [3]: no statistical difference was observed
